In patent US4614827A, “Method for isolating vinyl salt compounds from aqueous solutions” (Rohm GmbH, priority 1983, dated 1986):

Experiment: Water solubility at 20° C.
Excerpt: Of special interest are the salts of acrylic and methacrylic acid and also of maleic acid, fumaric acid, and itaconic acid, and more particularly the alkali metal salts, and especially the sodium, potassium, and lithium salts; the alkaline earth metal salts, and especially the magnesium, calcium, strontium, and barium salts; the salts of subgroups I and II of the periodic table, and especially the copper and zinc salts; the salts of main and subgroup IV (Ge, Sn, Pb, Ti, Zr, Hf), and especially the germanium, tin, lead, titanium, and zirconium salts; the salts of subgroup VIII (Fe, Ru, Os, Co, Rh, Ir, Ni, Pd, Pt), and especially the iron, cobalt, and nickel salts; the salts of main and subgroups V ((As, Sb, Bi, V, Nb, Ta) and of subgroup VII (Mn, Tc, Re), and especially the antimony, bismuth, vanadium, and manganese salts; and the ammonium salts, including those derived from ammonium cations of the formula [drawing 1] wherein R1 and R2 are hydrogen or an alkyl group having from 1 to 18 carbon atoms, and preferably from 1 to 5 carbon atoms, and R3 and R4 are hydrogen or an alkyl group having from 1 to 18 carbon atoms, and preferably from 1 to 6 carbon atoms, or wherein R3 and R4, optionally with inclusion of one or two further hetero atoms such as nitrogen, oxygen, or sulfur, form a five- or six-membered heterocyclic system.

SMILES | Water solubility at 20° C.
C=C(C)C(=O)[O-].[K+] [Potassium methacrylate] | 101.8 g/salt/100 g water
C=C(C)C(=O)[O-].[Na+] [Sodium methacrylate] | 95.3 g/salt/100 g water
C=C(C)C(=O)O [Strontium dimethacrylate] | 27.5 g/salt/100 g water
C=C(C)C(=O)[O-].[Li+] [Lithium methacrylate] | 87.5 g/salt/100 g water
C=C(C)C(=O)O [Barium dimethacrylate] | 40.5 g/salt/100 g water

Experiment: Water solubility of spray dried product (qualitative)
Format: physicochemical
Excerpt: Clear beads, some of them vitrified, were obtained. The major portion of these ranged in size from 10 to 20 microns; the largest particles were about 80 microns. The residual moisture of the spray dried material ranged from 0.35 to 0.55 percent and the bulk density from 540 to 600 grams/liter. Higher bulk densities can be obtained by increasing the operating temperature. Because of the good water solubility of the products being dried, the spray drying apparatus can be cleaned quite easily.
Clear beads in the range of 10 to 100 microns are obtained. The residual moisture of the spray dried material is less than 0.3%.

SMILES | water solubility (in words)
C=C(C)C(=O)[O-].[Na+] [Sodium methacrylate] | readily water soluble
